Measured values as given in patent US20250195521A1 (Revolution Medicines, Inc., priority 2020, published 2025).

Columns and labels:
[1] = tested on: Capan-1 cells (K-Ras G12V); assay: CellTiter-Glo cell viability, Capan-1; format: cell-based, human; settings: Homo sapiens, CAPAN-1, 120 h, K-Ras G12V, 5-day treatment; read-out: Capan-1 Cell Viability IC50
Procedure, shortened: (§1)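 Compounds were dispensed directly onto seeded cells and incubated until day 5, then plates were equilibrated at room temperature for about 30 min before CellTiter-Glo luminescence readout. Signals were normalized as (sample/average DMSO)×100 and fitted with a four-parameter logistic model.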

KRAS G12D = KRAS G12D (Homo sapiens (Human), UniProt P01116+P62937, G12D); assay: Ras-Raf disruption/FRET/MOA assay (BRAF RBD, Cyclophilin A); format: biochemical; settings: read-out: KRAS G12D FRET IC50
Procedure, shortened: (§2)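 Ras-GMPPNP (12.5 nM), BRAF RBD (50 nM) and 25 μM Cyclophilin A were incubated with compound for 3 h at 25° C, then detected 1.5 h with anti-His Eu and anti-GST APC; IC50 values follow from the reduced TR-FRET ratio.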

NRAS G12C = NRAS G12C (Homo sapiens (Human), UniProt P01111+P62937, G12C); assay: as above; format: biochemical; settings: read-out: NRAS G12C FRET data IC50
Procedure, shortened: (§3)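 TR-FRET readout: anti-His Eu-W1024 (10 nM) and anti-GST allophycocyanin (50 nM) added after 3 h, 25° C compound incubation, then 1.5 h more. Decrease in FRET ratio versus DMSO wells marks Ras:RAF disruption; IC50 reported.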

KRAS G12C = KRAS G12C (Homo sapiens (Human), UniProt P01116+P62937, G12C); assay: as above; format: biochemical; settings: read-out: KRAS G12C FRET IC50
Procedure, shortened: as §2

KRAS WT = KRAS WT (Homo sapiens (Human), UniProt P01116+P62937); assay: as above; format: biochemical; settings: read-out: KRAS WT FRET data IC50
Procedure, shortened: as §2

KRAS G12V = KRAS G12V (Homo sapiens (Human), UniProt P01116+P62937, G12V); assay: as above; format: biochemical; settings: read-out: KRAS G12V FRET IC50
Procedure, shortened: as §2

KRAS G13D = KRAS G13D (Homo sapiens (Human), UniProt P01116+P62937, G13D); assay: as above; format: biochemical; settings: read-out: KRAS G13D FRET data IC50
Procedure, shortened: as §2

KRAS G13C = KRAS G13C (Homo sapiens (Human), UniProt P01116+P62937, G13C); assay: as above; format: biochemical; settings: read-out: KRAS G13C FRET IC50
Procedure, shortened: as §2

NRAS Q61R = NRAS Q61R (Homo sapiens (Human), UniProt P01111+P62937, Q61R); assay: as above; format: biochemical
Procedure, shortened: as §3

NRAS WT = NRAS WT (Homo sapiens (Human), UniProt P01111+P62937); assay: as above; format: biochemical
Procedure, shortened: as §3

NRAS Q61K = NRAS Q61K (Homo sapiens (Human), UniProt P01111+P62937, Q61K); assay: as above; format: biochemical
Procedure, shortened: as §3

KRAS G12S = KRAS G12S (Homo sapiens (Human), UniProt P01116+P62937, G12S); assay: as above; format: biochemical; settings: read-out: KRAS G12S FRET IC50
Procedure, shortened: as §2

KRAS Q61H = KRAS Q61H (Homo sapiens (Human), UniProt P01116+P62937, Q61H); assay: as above; format: biochemical
Procedure, shortened: as §2

[2] = tested on: K-Ras G12C (NCI-H358 cells); assay: Potency assay: pERK in NCI-H358 cells; format: cell-based, human; settings: Homo sapiens; NCI-H358 cells, 4 hours; read-out: pERK EC50 (H358 KRAS G12C)
Procedure, shortened: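 Cells plated the day before were exposed for 4 h at 37° C, 5% CO2 to a 10-point, 3-fold DMSO dilution series (10 mM top stock), in duplicate. Phospho-ERK was read by AlphaLISA SureFire Ultra or by In-Cell Western with DRAQ5 DNA stain, and IC50 came from a 4-parameter sigmoidal fit.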

[3] = molecular target: K-Ras G12C(GMP-PNP) binding to BRAF RBD (Homo sapiens (Human), UniProt P01116+P62937, G12C); assay: Disruption of BRAF RBD interaction with K-Ras (FRET / MOA assay), K-Ras G12C; format: biochemical; settings: read-out: KRAS G12C FRET IC50
Procedure, shortened: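 Cpd 10-pt 3-fold dilution, top 30 μM final; Ras/CypA/BRAF RBD mix 3 h, 25° C. Add anti-His Eu-W1024 10 nM + anti-GST APC 50 nM final, 1.5 h. Readout TR-FRET ratio decrease vs DMSO → IC50.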

[4] = tested on: NCI-H358 cells (K-Ras G12C); assay: CellTiter-Glo cell viability, NCI-H358; format: cell-based, human; settings: Homo sapiens, NCI-H358, 120 h, K-Ras G12C, 5-day treatment; read-out: H358 Cell Viability IC50
Procedure, shortened: as §1

NCI-H358 (K-Ras G12C) = assay: CellTiter-Glo cell viability assay, NCI-H358; format: cell-based, human; settings: Homo sapiens, NCI-H358, 120 h, 5-day treatment; read-out: H358 Cell Viability assay data (K-Ras G12C, IC50)
Procedure, shortened: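 NCI-H358 cells were treated with test compounds dispensed directly into the assay wells and incubated until day 5. Viability was then read by CellTiter-Glo luminescence after a ~30 min room-temperature equilibration, normalized to the DMSO average (×100), and fit with a four-parameter logistic curve.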

KRAS G12V, sequence (P01116 other isoform, or with tags, fused parts or gaps G12V): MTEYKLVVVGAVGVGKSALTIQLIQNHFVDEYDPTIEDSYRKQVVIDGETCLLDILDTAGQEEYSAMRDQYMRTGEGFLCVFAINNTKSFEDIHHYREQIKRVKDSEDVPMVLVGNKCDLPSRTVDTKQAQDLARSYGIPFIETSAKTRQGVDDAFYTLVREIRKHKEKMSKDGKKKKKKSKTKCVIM
KRAS G12V, sequence (P62937 whole entry): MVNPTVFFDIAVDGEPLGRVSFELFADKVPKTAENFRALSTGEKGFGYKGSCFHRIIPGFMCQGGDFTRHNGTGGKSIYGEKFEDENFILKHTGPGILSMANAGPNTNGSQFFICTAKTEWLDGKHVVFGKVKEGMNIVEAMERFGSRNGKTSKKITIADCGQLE
NRAS G12C, sequence (P01111 whole entry G12C): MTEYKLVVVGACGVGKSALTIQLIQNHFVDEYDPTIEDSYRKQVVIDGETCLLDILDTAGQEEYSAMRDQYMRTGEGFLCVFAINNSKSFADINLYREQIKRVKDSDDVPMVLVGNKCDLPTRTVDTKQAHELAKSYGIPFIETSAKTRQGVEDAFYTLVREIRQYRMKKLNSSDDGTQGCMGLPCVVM
NRAS G12C, sequence (P62937 whole entry): as the sequence (P62937 whole entry) above
KRAS WT, sequence (P01116 other isoform, or with tags, fused parts or gaps): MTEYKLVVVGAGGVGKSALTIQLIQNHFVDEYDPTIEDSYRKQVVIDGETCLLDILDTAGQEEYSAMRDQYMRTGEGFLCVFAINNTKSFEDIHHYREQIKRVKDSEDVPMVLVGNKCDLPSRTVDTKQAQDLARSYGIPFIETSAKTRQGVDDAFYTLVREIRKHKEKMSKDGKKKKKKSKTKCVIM
KRAS WT, sequence (P62937 whole entry): as the sequence (P62937 whole entry) above
KRAS Q61H, sequence (P01116 other isoform, or with tags, fused parts or gaps Q61H): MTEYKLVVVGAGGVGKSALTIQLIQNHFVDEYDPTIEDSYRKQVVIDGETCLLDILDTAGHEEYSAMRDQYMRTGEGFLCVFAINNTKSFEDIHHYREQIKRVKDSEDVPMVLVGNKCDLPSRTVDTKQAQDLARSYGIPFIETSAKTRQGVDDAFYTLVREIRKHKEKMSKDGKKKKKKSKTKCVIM
KRAS Q61H, sequence (P62937 whole entry): as the sequence (P62937 whole entry) above
KRAS G12D, sequence (P01116 other isoform, or with tags, fused parts or gaps G12D): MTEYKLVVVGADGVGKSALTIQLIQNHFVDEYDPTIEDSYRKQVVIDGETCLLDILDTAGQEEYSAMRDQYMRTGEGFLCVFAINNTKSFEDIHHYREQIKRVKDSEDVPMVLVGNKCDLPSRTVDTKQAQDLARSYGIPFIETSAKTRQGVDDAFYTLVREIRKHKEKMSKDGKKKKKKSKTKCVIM
KRAS G12D, sequence (P62937 whole entry): as the sequence (P62937 whole entry) above
KRAS G13D, sequence (P01116 other isoform, or with tags, fused parts or gaps G13D): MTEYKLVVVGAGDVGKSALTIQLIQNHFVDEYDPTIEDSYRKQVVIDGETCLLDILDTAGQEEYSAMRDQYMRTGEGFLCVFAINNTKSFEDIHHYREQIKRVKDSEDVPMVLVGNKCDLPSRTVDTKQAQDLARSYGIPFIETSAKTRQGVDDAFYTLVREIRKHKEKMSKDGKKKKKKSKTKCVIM
KRAS G13D, sequence (P62937 whole entry): as the sequence (P62937 whole entry) above
NRAS WT, sequence (P01111 whole entry): as the sequence (P01111 whole entry G12C) above, with C12G counted along it
NRAS WT, sequence (P62937 whole entry): as the sequence (P62937 whole entry) above
NRAS Q61R, sequence (P01111 whole entry Q61R): as the sequence (P01111 whole entry G12C) above, with C12G, Q61R counted along it
NRAS Q61R, sequence (P62937 whole entry): as the sequence (P62937 whole entry) above
NRAS Q61K, sequence (P01111 whole entry Q61K): as the sequence (P01111 whole entry G12C) above, with C12G, Q61K counted along it
NRAS Q61K, sequence (P62937 whole entry): as the sequence (P62937 whole entry) above
KRAS G12C, sequence (P01116-2 other isoform, or with tags, fused parts or gaps G12C): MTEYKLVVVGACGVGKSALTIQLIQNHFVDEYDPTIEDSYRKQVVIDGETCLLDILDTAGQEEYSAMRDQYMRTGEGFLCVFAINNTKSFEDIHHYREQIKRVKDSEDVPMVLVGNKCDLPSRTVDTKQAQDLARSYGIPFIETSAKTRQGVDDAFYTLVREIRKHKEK
KRAS G12C, sequence (P62937 whole entry): as the sequence (P62937 whole entry) above
KRAS G13C, sequence (P01116 other isoform, or with tags, fused parts or gaps G13C): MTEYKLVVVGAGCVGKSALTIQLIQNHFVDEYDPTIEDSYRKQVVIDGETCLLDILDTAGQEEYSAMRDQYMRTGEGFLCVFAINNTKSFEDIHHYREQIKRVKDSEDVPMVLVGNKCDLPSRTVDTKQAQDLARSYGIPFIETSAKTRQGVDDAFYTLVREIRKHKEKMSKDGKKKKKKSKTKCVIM
KRAS G13C, sequence (P62937 whole entry): as the sequence (P62937 whole entry) above
KRAS G12S, sequence (P01116 other isoform, or with tags, fused parts or gaps G12S): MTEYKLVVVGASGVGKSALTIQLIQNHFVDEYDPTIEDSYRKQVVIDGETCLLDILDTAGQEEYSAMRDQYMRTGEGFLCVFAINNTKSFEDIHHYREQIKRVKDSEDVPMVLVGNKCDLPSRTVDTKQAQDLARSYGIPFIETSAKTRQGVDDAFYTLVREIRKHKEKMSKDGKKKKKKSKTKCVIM
KRAS G12S, sequence (P62937 whole entry): as the sequence (P62937 whole entry) above
K-Ras G12C(GMP-PNP) binding to BRAF RBD, sequence (P01116 other isoform, or with tags, fused parts or gaps G12C): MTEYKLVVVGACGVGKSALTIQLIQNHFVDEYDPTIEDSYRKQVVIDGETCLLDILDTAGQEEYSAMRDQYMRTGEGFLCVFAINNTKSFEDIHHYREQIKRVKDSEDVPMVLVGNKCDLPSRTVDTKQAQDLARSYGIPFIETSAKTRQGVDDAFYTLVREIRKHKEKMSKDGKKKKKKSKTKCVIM
K-Ras G12C(GMP-PNP) binding to BRAF RBD, sequence (P62937 whole entry): as the sequence (P62937 whole entry) above

IC50 (KRAS G12D) [nM] | IC50 (NRAS G12C) [nM] | IC50 (KRAS G12C) [nM] | IC50 (KRAS WT) [nM] | IC50 (KRAS G12V) [nM] | IC50 (KRAS G13D) [nM] | IC50 (KRAS G13C) [nM] | IC50 (NRAS Q61R) [nM] | IC50 (NRAS WT) [nM] | IC50 (NRAS Q61K) [nM] | IC50 (KRAS G12S) [nM] | IC50 (KRAS Q61H) [nM] | EC50 [2] [nM] | IC50 [3] [nM] | IC50 [4] [nM] | IC50 (NCI-H358 (K-Ras G12C)) [nM] | SMILES | IC50 [1] [nM]
1000 to 10000 | 100 to 1000 | 100 to 1000 | 100 to 1000 | 100 to 1000 | 1000 to 10000 | 100 to 1000 | 100 to 1000 | 100 to 1000 | 100 to 1000 | 100 to 1000 | 100 to 1000 | – | – | – | – | CCn1c(-c2cccnc2[C@H](C)OC)c2c3cc(ccc31)-c1csc(n1)C[C@H](NC(=O)[C@H](C(C)C)N(C)C(=O)N1C[C@@H]3[C@@H](C1)OCCN3C)C(=O)N1CCC[C@H](N1)C(=O)OCC(C)(C)C2 [Compound A472] | 10 to 100
1000 to 10000 | 1000 to 10000 | 1000 to 10000 | 1000 to 10000 | 1000 to 10000 | 1000 to 10000 | 1000 to 10000 | 1000 to 10000 | 1000 to 10000 | 100 to 1000 | 1000 to 10000 | – | – | 100 to 1000 | 100 to 1000 | 10 to 100 | CCn1c(-c2cccnc2[C@H](C)OC)c2c3nc(ccc31)-c1csc(n1)C[C@H](NC(=O)[C@H](C(C)C)N(C)C(=O)N1CC(OC)C1)C(=O)N1CCC[C@H](N1)C(=O)OCC(C)(C)C2 [Compound A613, N-((2S)-1-(((6^3S,4S,Z)-1^1-ethyl-1^2-(2-((S)-1-methoxyethyl)pyridin-3-yl)-10,10-dimethyl-5,7-dioxo-6^1,6^2,6^3,6^4,6^5,6^6-hexahydro-1^1H-8-oxa-2 (4,2)-thiazola-1 (5,3)-pyrrolo [3,2-b]pyridina-6 (1,3)-pyridazinacycloundecaphane-4-yl)amino)-3-methyl-1-oxobutan-2-yl)-3-methoxy-N-methylazetidine-1-carboxamide] | 100 to 1000

The next lines start with the compound.

SMILES | IC50 (KRAS G12D) [nM] | IC50 (NRAS G12C) [nM] | IC50 (KRAS G12C) [nM] | IC50 (KRAS WT) [nM] | IC50 (KRAS G12V) [nM] | IC50 (KRAS G13D) [nM] | IC50 (KRAS G13C) [nM] | IC50 (NRAS Q61R) [nM] | IC50 (NRAS WT) [nM] | IC50 (NRAS Q61K) [nM] | IC50 (KRAS G12S) [nM] | IC50 (KRAS Q61H) [nM] | EC50 [2] [nM] | IC50 [3] [nM] | IC50 [4] [nM] | IC50 (NCI-H358 (K-Ras G12C)) [nM] | IC50 [1] [nM]
CCn1c(-c2cccnc2[C@H](C)OC)c2c3cc(ccc31)-c1csc(n1)C[C@H](NC(=O)[C@H](C(C)C)N(C)C(=O)N1[C@H](C)CN(C)C[C@@H]1C)C(=O)N1CCC[C@H](N1)C(=O)OCC(C)(C)C2 [Compound A272] | 1000 to 10000 | 1000 to 10000 | 1000 to 10000 | 1000 to 10000 | > 10000 | 1000 to 10000 | 1000 to 10000 | 1000 to 10000 | 1000 to 10000 | 1000 to 10000 | 1000 to 10000 | 100 to 1000 | – | – | – | – | 1000 to 10000
CCn1c(-c2cccnc2[C@H](C)OC)c2c3cc(ccc31)-c1cc(c3cn[nH]c3c1)C[C@H](NC(=O)[C@H](C(C)C)N(C)C(C)=O)C(=O)N1CCC[C@H](N1)C(=O)OCC(C)(C)C2 [Compound A388] | > 10000 | 1000 to 10000 | 1000 to 10000 | 1000 to 10000 | 1000 to 10000 | 1000 to 10000 | 100 to 1000 | 1000 to 10000 | 1000 to 10000 | 1000 to 10000 | 1000 to 10000 | 100 to 1000 | < 5000 | – | – | – | 1000 to 10000
CCn1c(-c2cccnc2[C@H](C)OC)c2c3cc(ccc31)-c1csc(n1)C[C@H](NC(=O)[C@H](C(C)C)N(C)C(=O)N1CC[C@@]13CCCNC3)C(=O)N1CCC[C@H](N1)C(=O)OCC(C)(C)C2 [Compound A435] | 100 to 1000 | 100 to 1000 | 100 to 1000 | 100 to 1000 | 1000 to 10000 | 100 to 1000 | 100 to 1000 | 1000 to 10000 | 100 to 1000 | 1000 to 10000 | 100 to 1000 | 100 to 1000 | < 5000 | – | – | – | 1000 to 10000
